What follows are molecules tested on hypoxia-inducible endogenous VEGF expression in HeLa cells (assay: Hypoxia-inducible endogenous VEGF expression, VEGF ELISA of conditioned media (dose-response EC50)). Details: HeLa cells under hypoxic conditions.
Format: cell-based
Procedure, shortened: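 HeLa cells were cultured 24-48 h under hypoxia (1% O2, 5% CO2, balance N2) with or without compound. Conditioned-media VEGF protein was measured by ELISA against a standard curve. EC50 and CC50 come from percentage-inhibition curves over, e.g., seven concentrations, with maximal inhibition set at 100%.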

Row | Compound | EC50
1 | Clc1ccc2[nH]c3c(c2c1)CCN(Cc1ccccc1)C3C1CCOC1 (stereo not shown) [Compound 264] | > 1000 nM

Same assay, conditions: HeLa cells, hypoxic conditions (1% O2)

Row | Compound | EC50
2 | COC(=O)c1ccc(C2c3[nH]c4ccc(Cl)cc4c3CCN2C(=O)Oc2ccc(F)cc2)cc1 (stereo not shown) [Compound 579] | < 8 nM
3 | CN(C)CCCOc1ccc(C2c3[nH]c4ccc(Cl)cc4c3CCN2C(=O)Oc2ccc(Br)cc2)cc1 (stereo not shown) [Compound 468] | 8 to 40 nM
4 | O=C(Oc1ccc(Cl)cc1)N1CCc2c([nH]c3ccc(Cl)cc23)C1c1ccc(S(=O)(=O)N2CCOCC2)cc1 (stereo not shown) [Compound 450] | 8 to 40 nM

Same assay, conditions: Homo sapiens, HeLa cells under hypoxic conditions

Row | Compound | EC50
5 | COC(=O)N1CCc2c([nH]c3ccc(Cl)cc23)C1c1ccccc1 (stereo not shown) [Compound 96] | 8 to 40 nM
6 | CCOC(=O)N1CCc2c([nH]c3ccc(Cl)cc23)C1c1ccc(OC)cc1 (stereo not shown) [Compound 2] | < 8 nM
7 | CN(C)c1ncc(C2c3[nH]c4ccc(Br)cc4c3CCN2c2ncccn2)cn1 (stereo not shown) [Compound 394] | < 8 nM
8 | C[C@H](NC(=O)OC(C)(C)C)C(=O)N1CCc2c([nH]c3ccc(Cl)cc23)C1c1ccccc1 (stereo partly shown) [Compound 166] | 40 to 200 nM
9 | Fc1ccc(C2NCCc3c2[nH]c2ccc(Cl)cc32)c(F)c1 (stereo not shown) [Compound 163] | 40 to 200 nM
10 | CCOC(=O)N1CCc2c([nH]c3ccc(Br)cc23)C1c1cc(F)ccc1F (stereo not shown) [Compound 115] | 8 to 40 nM
11 | COc1ccc(C2c3[nH]c4ccc(Cl)cc4c3CCN2C(=O)c2ccc(F)c(Cl)c2)cc1 (stereo not shown) [Compound 371] | 40 to 200 nM
12 | Fc1cc(F)cc(C2NCCc3c2[nH]c2ccc(Br)cc32)c1 (stereo not shown) [Compound 155] | 40 to 200 nM
13 | Cc1ccc(NC(=S)N2CCc3c([nH]c4ccc(Cl)cc34)C2c2ccc(C(C)C)cc2)cc1 (stereo not shown) [Compound 338] | 200 to 1000 nM
14 | COC(=O)N1CCc2c([nH]c3ccc(Cl)cc23)C1c1cccc(C(F)(F)F)c1 (stereo not shown) [Compound 125] | 40 to 200 nM
15 | COc1ccc(C2c3[nH]c4ccc(Br)cc4c3CCN2C(=O)Oc2ccc(Cl)cc2)cc1 (stereo not shown) [Compound 355] | < 8 nM
16 | COCCOC(=O)N1CCc2c([nH]c3ccc(Cl)cc23)C1c1ccc(OCCCn2ccnc2)cc1 (stereo not shown) [Compound 385] | 8 to 40 nM
17 | Clc1ccc2[nH]c3c(c2c1)CCNC3c1ccc(-n2ccnc2)cc1 (stereo not shown) [Compound 277] | > 1000 nM
18 | O=C(OCCCl)N1CCc2c([nH]c3ccc(Cl)cc23)C1c1ccc(Cl)cc1 (stereo not shown) [Compound 55] | 8 to 40 nM
19 | CC(=O)N1CCc2c([nH]c3ccc(Br)cc23)C1c1ccccc1 (stereo not shown) [Compound 152] | 40 to 200 nM
20 | Clc1ccc2[nH]c3c(c2c1)CCN(c1ncccn1)C3c1ccc2c(c1)OCO2 (stereo not shown) [Compound 328] | > 1000 nM
21 | CCOC(=O)N1CCc2c([nH]c3ccc(Cl)cc23)C1c1cccc(C(F)(F)F)c1 (stereo not shown) [Compound 37] | < 8 nM
22 | COc1ccc(C2NCCc3c2[nH]c2ccc(Cl)cc32)cc1OC (stereo not shown) [Compound 327] | > 1000 nM
23 | COc1ccc2[nH]c3c(c2c1)CCNC3c1ccc(OCc2ccccc2)cc1 (stereo not shown) [Compound 285] | > 1000 nM
24 | O=C(OCCCl)N1CCc2c([nH]c3ccc(Cl)cc23)C1c1cc(F)cc(F)c1 (stereo not shown) [Compound 83] | 8 to 40 nM

Row | Compound | EC50
25 | COC(=O)N1CCc2c([nH]c3ccc(Cl)cc23)C1c1ccc(C#N)cc1 (stereo not shown) [Compound 118] | 8 to 40 nM
26 | O=C(COc1ccc(C2c3[nH]c4ccc(Cl)cc4c3CCN2C(=O)Oc2ccccc2)cc1)Oc1ccccc1 (stereo not shown) [Compound 366] | > 1000 nM
27 | O=C(Oc1ccc(Cl)cc1)N1CCc2c([nH]c3ccc(Cl)cc23)C1c1ccc(OCCCn2cncn2)cc1 (stereo not shown) [Compound 391] | < 8 nM
28 | COc1ccc(C2c3[nH]c4ccc(Cl)cc4c3CCN2C(=O)Nc2ccccc2OC)cc1 (stereo not shown) [Compound 142] | 40 to 200 nM
29 | Clc1ccc2[nH]c3c(c2c1)CCNC3c1ccc2c(c1)OCO2 (stereo not shown) [Compound 227] | 200 to 1000 nM
30 | CCOC(=O)N1Cc2c([nH]c3ccc(Cl)cc23)C(c2ccccc2)C1 (stereo not shown) [Compound 250] | > 1000 nM
31 | Clc1ccc(C2NCCc3c2[nH]c2ccc(Cl)cc32)cc1 (stereo not shown) [Compound 190] | 200 to 1000 nM
32 | COc1ccc(C2c3[nH]c4ccc(Cl)cc4c3CCN2C(=O)Nc2cccc(OC)c2)cc1 (stereo not shown) [Compound 164] | 40 to 200 nM
33 | CCOC(=O)N1CCc2c([nH]c3ccc(Br)cc23)C1c1cccc(Cl)c1Cl (stereo not shown) [Compound 148] | 40 to 200 nM
34 | Cc1ccc(C2c3[nH]c4ccc(Br)cc4c3CCN2C(=O)Oc2ccc(Cl)cc2)cc1 (stereo not shown) [Compound 353] | < 8 nM
35 | CCOC(=O)N1CCc2c([nH]c3ccc(Br)cc23)C1c1cccc(Cl)c1 (stereo not shown) [Compound 16] | < 8 nM
36 | Clc1ccc2[nH]c3c(c2c1)CCN(Cc1ccoc1)C3C1CCCCC1 (stereo not shown) [Compound 271] | > 1000 nM
37 | Clc1ccc(CC2NCCc3c2[nH]c2ccc(Cl)cc32)c(Cl)c1 (stereo not shown) [Compound 222] | 200 to 1000 nM
38 | CCCOC(=O)N1CCc2c([nH]c3ccc(Cl)cc23)C1c1ccc(OC)cc1 (stereo not shown) [Compound 28] | < 8 nM
39 | O=C(OCCCl)N1CCc2c([nH]c3ccc(Cl)cc23)C1c1cccc(F)c1F (stereo not shown) [Compound 6] | < 8 nM
40 | CC(C)OC(=O)N1CCc2c([nH]c3ccc(Cl)cc23)C1c1ccc(Br)cc1 (stereo not shown) [Compound 47] | 8 to 40 nM
41 | CC(C)(C)c1cc(C2c3[nH]c4ccc(Cl)cc4c3CCN2Cc2ccccc2)cc(C(C)(C)C)c1O (stereo not shown) [Compound 263] | > 1000 nM
42 | CCOC(=O)N1CCc2c([nH]c3ccc(F)cc23)C1c1ccc(Br)cc1 (stereo not shown) [Compound 196] | 200 to 1000 nM
43 | Cc1ccc(C2NCCc3c2[nH]c2ccc(Cl)cc32)cc1 (stereo not shown) [Compound 193] | 200 to 1000 nM

Same assay, conditions: Homo sapiens, HeLa cells, hypoxic conditions (1% O2)

Row | Compound | EC50
44 | O=C(Oc1ccc(F)cc1)N1CCc2c([nH]c3ccc(Cl)cc23)C1c1ccc(OCCCCCCCl)cc1 (stereo not shown) [Compound 723] | < 8 nM
45 | C=CC(=O)Nc1ccc(C2c3[nH]c4ccc(Cl)cc4c3CCN2C(=O)Oc2ccc(Cl)cc2)cc1 (stereo not shown) [Compound 500] | 40 to 200 nM
46 | Cc1ccc(OC(=O)N2CCc3c([nH]c4ccc(Cl)cc34)C2c2ccc(OCCCN(C)C)cc2)cc1 (stereo not shown) [Compound 502] | 40 to 200 nM
47 | C=CCOc1ccc(C2c3[nH]c4ccc(Cl)cc4c3CCN2C(=O)Oc2ccccc2)cc1 (stereo not shown) [Compound 413] | < 8 nM
48 | CC(CC1NCCc2c1[nH]c1ccc(Cl)cc21)c1ccccc1 (stereo not shown) [Compound 532] | 200 to 1000 nM
49 | CCOC(=O)N1CCc2c([nH]c3ccc(Br)cc23)C1c1ccc(CNCCOC)cc1 (stereo not shown) [Compound 420] | < 8 nM
50 | CSCCC1NCCc2c1[nH]c1ccc(Cl)cc21 (stereo not shown) [Compound 497] | 40 to 200 nM
51 | COc1ccc(C2c3[nH]c4ccc(OCc5ccccc5)cc4c3CCN2C(=O)Oc2ccc(Cl)cc2)cc1 (stereo not shown) [Compound 616] | 200 to 1000 nM
52 | O=C(Oc1ccc(F)cc1)N1CCc2c([nH]c3ccc(Cl)cc23)C1c1ccc(OCCCCn2ccnc2)cc1 (stereo not shown) [Compound 742] | < 8 nM
53 | CCOC(=O)N1CCc2c([nH]c3ccc(Cl)cc23)C1c1ccc(C(=O)N2CCC(N3CCCCC3)CC2)cc1 (stereo not shown) [Compound 531] | 200 to 1000 nM
54 | COC(=O)c1ccc(C2c3[nH]c4ccc(Cl)cc4c3CCN2C(=O)Oc2ccccc2Cl)cc1 (stereo not shown) [Compound 590] | 8 to 40 nM
55 | O=C(Oc1ccc(F)cc1)N1CCc2c([nH]c3ccc(Cl)cc23)C1c1ccc(OCCCCNCCO)cc1 (stereo not shown) [Compound 735] | < 8 nM
56 | CCOC(=O)N1CCc2c([nH]c3ccc(Cl)cc23)C1c1ccc(C(=O)NCCCN2CCOCC2)cc1 (stereo not shown) [Compound 534] | 200 to 1000 nM
57 | O=C(Oc1ccc(Cl)cc1)N1CCc2c([nH]c3ccc(Cl)cc23)C1c1ccc(OCC(O)CN2CCCC2)cc1 (stereo not shown) [Compound 462] | 8 to 40 nM
58 | COC(=O)C(=O)N1CCc2c([nH]c3ccc(Cl)cc23)C1c1ccc(OC)cc1 (stereo not shown) [Compound 485] | 40 to 200 nM
59 | COC(=O)c1ccc(C2c3[nH]c4ccc(Br)cc4c3CCN2C(=O)Oc2ccc(F)cc2)cc1 (stereo not shown) [Compound 592] | < 8 nM
60 | O=C(Oc1ccc(Cl)cc1)N1CCc2c([nH]c3ccc(Cl)cc23)C1c1ccc(OCC2CO2)cc1 (stereo not shown) [Compound 460] | 8 to 40 nM
61 | CCOC(=O)N1CCc2c([nH]c3ccc(Br)cc23)C1c1ccc(C(N)=O)cc1 (stereo not shown) [Compound 505] | 40 to 200 nM
62 | CNc1ncc(C2c3[nH]c4ccc(Br)cc4c3CCN2c2ncccn2)cn1 (stereo not shown) [Compound 443] | 8 to 40 nM
63 | CCOC(=O)N1CCc2c([nH]c3ccc(Cl)cc23)C1c1cccc(C(=O)NCCOC)c1 (stereo not shown) [Compound 556] | 200 to 1000 nM
64 | O=C(Oc1ccccc1)N1CCc2c([nH]c3ccc(Cl)cc23)C1c1ccc(OCC(O)CO)cc1 (stereo not shown) [Compound 626] | 8 to 40 nM
65 | CN1CCN(CCCCOc2ccc(C3c4[nH]c5ccc(Cl)cc5c4CCN3C(=O)Oc3ccc(Cl)cc3)cc2)CC1 (stereo not shown) [Compound 704] | 40 to 200 nM
66 | CC/C=C/CCC1c2[nH]c3ccc(Cl)cc3c2CCN1C(=O)OCC (stereo not shown) [Compound 439] | < 8 nM
67 | COc1ccc(C2c3[nH]c4ccc(Cl)cc4c3CCN2C(=O)Oc2ccccc2Cl)cc1 (stereo not shown) [Compound 587] | 40 to 200 nM
68 | COCCCNCCCCCCOc1ccc(C2c3[nH]c4ccc(Cl)cc4c3CCN2C(=O)Oc2ccc(F)cc2)cc1 (stereo not shown) [Compound 775] | < 8 nM

Same assay, conditions: Homo sapiens, HeLa cells, hypoxic conditions (1% O2, 5% CO2)

Row | Compound | EC50
69 | O=C(Oc1ccc(Cl)cc1)N1CCc2c([nH]c3ccc(Cl)cc23)C1c1ccc(OCCCN2CCN(CCO)CC2)cc1 (stereo not shown) [Compound 942] | 8 to 40 nM
70 | CN1CCCC(COc2ccc(C3c4[nH]c5ccc(Cl)cc5c4CCN3C(=O)Oc3ccccc3Cl)cc2)C1 (stereo not shown) [Compound 976] | 40 to 200 nM
71 | O=C(Oc1ccc(F)cc1)N1CCc2c([nH]c3ccc(Cl)cc23)C1c1ccc(OCC(O)Cn2ccnn2)cc1 (stereo not shown) [Compound 941] | < 8 nM
72 | CC(C)NCCCOc1ccc(C2c3[nH]c4ccc(Cl)cc4c3CCN2C(=O)Oc2ccc(Cl)cc2)cc1 (stereo not shown) [Compound 953] | 8 to 40 nM
73 | O=C(Oc1ccc(F)cc1)N1CCc2c([nH]c3ccc(Cl)cc23)C1c1ccc(OCCn2cccn2)cc1 (stereo not shown) [Compound 836] | 8 to 40 nM
74 | CS(=O)(=O)Nc1ccc(C2c3[nH]c4ccc(Cl)cc4c3CCN2C(=O)Oc2ccc(Cl)cc2)cc1 (stereo not shown) [Compound 974] | 40 to 200 nM
75 | O=C(Oc1ccc(F)cc1)N1CCc2c([nH]c3ccc(Cl)cc23)C1c1ccc(OCC(O)CN2CCSCC2)cc1 (stereo not shown) [Compound 925] | < 8 nM
76 | Cc1cnc(NCCOc2ccc(C3c4[nH]c5ccc(Cl)cc5c4CCN3C(=O)Oc3ccc(F)cc3)cc2)s1 (stereo not shown) [#838] | < 8 nM
